In the Deep4Chem optical property database one finds fluorescence lifetime data, which are given here for 45 compounds.

The structures appear in SMILES notation. Values joined by “and” are separate entries in the source; they are usually repeats but may differ in a detail not shown here. Equal values may be shown once.

A short description of this series: solvent given as SMILES.

Take `c1ccc2c(-c3ccc4sc5ccc(-c6c7ccccc7cc7ccccc67)cc5c4c3)c3ccccc3cc2c1`: the fluorescence lifetime by setting is: (in C1CCCCC1) 3.9 ns; (in CC#N) 4.3 ns; (in ClCCl) 4.7 ns.
`CC1(C)c2ccccc2N(c2ccc(-c3cc(C#N)c(C#N)cc3-c3ccc(N4c5ccccc5C(C)(C)c5ccccc54)cc3)cc2)c2ccccc21` registered a fluorescence lifetime (in c1cc(-c2cccc(-n3c4ccccc4c4ccccc43)c2)cc(-n2c3ccccc3c3ccccc32)c1) of 35 ns.
For `COc1c2ccccc2c(OC)c2c1c1c(F)cccc1n2C`, the fluorescence lifetime is, setting by setting: (in C1CCCCC1) 23.3 ns; (in CC#N) 25.2 ns; (in CO) 24.4 ns; (in ClCCl) 21.2 ns.
As for `C#CCN1C(=O)/C(=C/c2cc(OC(C)C)ccc2OC(C)C)N=C1C`, the fluorescence lifetime is, setting by setting: (in C1COCCO1) 1.66 ns; (in CC#N) 2.22 ns; (in CC(C)=O) 2.17 ns; (in CCCCCC) 0.89 ns; (in CCCCO) 0.82 ns; (in CCCO) 0.85 ns. The fluorescence lifetime is 1 ns (in CCO); 1.5 ns (in CCOC(C)=O); 2.62 ns (in CN(C)C=O); 1.1 ns (in CO); 3.03 ns (in CS(C)=O).
For the setting “in ClC(Cl)Cl”, `F[B-]1(F)OC(c2ccc(Br)cc2)=Cc2c3ccccc3c3ccccc3[n+]21` displayed a fluorescence lifetime of 0.436 ns.
Take `C(=C\c1ccc2ccccc2c1)/c1ccc(Nc2ccccc2)cc1`: the fluorescence lifetime is, setting by setting: (in CC#N) 0.43 ns; (in CCCCCC) 0.34 ns.
`CC1=CC(C)=[N+]2C1=Cc1c3ccccc3c(C#Cc3ccc(F)cc3)n1[B-]2(F)F` had a fluorescence lifetime (in CCCCCC) of 5.44 ns, a fluorescence lifetime (in CCCCCCCCO) of 5.07 ns, a fluorescence lifetime (in CCOC(C)=O) of 5.32 ns and a fluorescence lifetime (in CN(C)C=O) of 4.92 ns.
`c1ccc([B-]2(c3ccccc3)Oc3ccc4ccccc4c3-c3c4ccccc4nc[n+]32)cc1` showed a fluorescence lifetime (in Cc1ccccc1) of 9.59 ns.
Consider `COc1ccc(/N=N/c2c(O)c3ccccc3n(C)c2=O)c(S(=O)(=O)O)c1`, for which, under “in CS(C)=O”, the fluorescence lifetime stood at 0.04 ns.
`O=C(O)c1ccc(-c2ccc(-c3nc(-c4ccccc4)c4ccccn34)cc2)s1` displayed a fluorescence lifetime (in CC#N) of 1.5 ns.
For `Nc1ccc2c(c1)C(=O)c1ccccc1-2`, the fluorescence lifetime reads like this: (in C1CCCCC1) 4 ns; (in c1ccccc1) 0.84 ns.
`Cc1cc(C)c2cc3cc(C)ncc3cc2c1`: where the note is “in CCO”, the fluorescence lifetime turned out to be 18 ns.
With `CCCCOc1ccc(-c2oc3c(-c4ccc(OCCCC)cc4)c4n(c3c2-c2ccc(OCCCC)cc2)[B-](F)(F)[N+]2=Cc3c(-c5ccc(OCCCC)cc5)c5oc(-c6ccc(OCCCC)cc6)c(-c6ccc(OCCCC)cc6)c5n3[B-](F)(F)[N+]2=C4)cc1`, the fluorescence lifetime (in ClCCl) is 2.56 ns.
On to `Cn1ccc(-c2nc3ccccc3nc2/C=C/N2CCCC2)c1`, for which the fluorescence lifetime is, setting by setting: (in C1CCCCC1) 1.87 ns; (in C1CCOC1) 6.61 ns; (in CC#N) 5.96 ns; (in CC(C)=O) 6.72 ns; (in CCO) 0.39 ns; (in CO) 0.12 ns. Further, the fluorescence lifetime (in CS(C)=O) was determined as 5.54 ns, the fluorescence lifetime (in Cc1ccccc1) was determined as 5.1 ns and the fluorescence lifetime (in ClCCl) amounted to 8.33 ns.
Consider `c1ccc(N2c3ccccc3Sc3cc(-c4cccc5nc6ccccc6cc45)ccc32)cc1`, for which the fluorescence lifetime is, setting by setting: (in CC#N) 7.58 ns; (in CCCCCC) 2.05 ns; (in CCOCC) 3.96 ns; (in ClCCl) 3.32 ns.
The compound `Cc1ccsc1-c1ccc(-c2ccc(-c3sccc3C)s2)s1` showed a fluorescence lifetime (in CCC(C)C) of 0.43 ns.
For the setting “in CC#N”, `Cc1ccc(-c2ccc(/C=C/c3ccc(N(C)C)cc3)cn2)nc1` displayed a fluorescence lifetime of 1.22 ns.
With `c1ccc(-c2nn(-c3ccccc3)c3nc4ccc(-n5c6ccccc6c6ccccc65)cc4cc23)cc1`, the fluorescence lifetime reads like this: (in C1CCCCC1) 17.6 ns; (in C1CCOC1) 19.1 ns; (in CC#N) 21.8 ns; (in CC(C)=O) 21.6 ns; (in CCCCCl) 19.1 ns; (in CCCCOCCCC) 19.4 ns. This compound gave a fluorescence lifetime (in CN(C)C=O) of 20.2 ns.
As to `COc1ccc(C2=CC(c3ccc4cc(N(C)C)ccc4c3)=[O+][B-](F)(F)O2)cc1`, the fluorescence lifetime (in C1CCOC1) came to 2.68 ns; the fluorescence lifetime (in CC#N) came to 0.42 ns; the fluorescence lifetime (in CC(C)=O) is 0.72 ns; the fluorescence lifetime (in CS(C)=O) was 0.54 ns; the fluorescence lifetime (in Cc1ccccc1) turned out to be 2.96 ns; the fluorescence lifetime (in ClC(Cl)Cl) came out at 3.54 ns. Further, the fluorescence lifetime (in ClCCl) was 2.71 ns.
With `CCCCN1C(=O)c2cc(Oc3ccc(C(C)(C)C)cc3)c3c4c(Oc5ccc(C(C)(C)C)cc5)c(Oc5ccc(C(C)(C)C)cc5)c5c6c(cc(Oc7ccc(C(C)(C)C)cc7)c(c7c(Oc8ccc(C(C)(C)C)cc8)c(Oc8ccc(C(C)(C)C)cc8)c(c2c37)C1=O)c64)C(=O)N(CCCC)C5=O`, the fluorescence lifetime (in ClC(Cl)Cl) was 6.3 ns.
Consider `CC1(C)C(/C=C/C2=C(c3ccc(C(=O)O)cc3)C(=C/C=C3/N(CCCCS(=O)(=O)[O-])c4ccccc4C3(C)C)/CC2)=[N+](CCCCS(=O)(=O)[O-])c2ccccc21`, for which the fluorescence lifetime was 1.13 ns (in CC(C)=O); 0.87 ns (in CCO); 0.83 ns (in CO); 1.11 ns (in CS(C)=O); 1.25 ns (in ClC(Cl)Cl); 1.17 ns (in ClCCl). Besides, for the setting “in O”, the fluorescence lifetime amounted to 0.36 ns.
As for `O=c1cc(C(F)(F)F)c2cc3c4c(c2o1)CCCN4CCC3`, the fluorescence lifetime (in C1CCCCC1) was 4.3 ns; the fluorescence lifetime (in CC#N) is 5.6 ns; the fluorescence lifetime (in CCC#N) came to 6.55 ns; the fluorescence lifetime (in CCCCCCCl) amounted to 5.72 ns; the fluorescence lifetime (in CCCCl) was determined as 5.78 ns; the fluorescence lifetime (in CCO) was 3.4 ns and 4.56 ns. In addition, the fluorescence lifetime is, setting by setting: (in CCOC(C)=O) 5.4 ns; (in OCC(F)(F)F) 3.97 ns; (in OCC(O)CO) 3.5 ns.
In the case of `c1ccc2c(c1)cc(-c1cc(-c3nccs3)nc(-c3nccs3)c1)c1ccccc12`, the fluorescence lifetime (in CC#N) amounted to 1.94 ns, the fluorescence lifetime (in CCCCCC) was 5 ns, the fluorescence lifetime (in CO) is 1.79 ns and the fluorescence lifetime (in ClC(Cl)Cl) worked out at 2.54 ns.
As for `c1cc2c3ccc[n+]4cccc(c5ccc[n+](c1)c25)c34`, the fluorescence lifetime reads like this: (in CC#N) 7.4 ns; (in CS(C)=O) 4.4 ns; (in C[N+](=O)[O-]) 6.2 ns; (in O) 6.8 ns.
Under “in ClCCl”, `C(=C\c1cc(-c2ccccc2)c(/C=C/c2ccc(N(c3ccccc3)c3ccccc3)cc2)cc1-c1ccccc1)/c1ccc(N(c2ccccc2)c2ccccc2)cc1` yielded a fluorescence lifetime of 1.29 ns.
Compound `Clc1cnc2nn3ccccc3c2n1` showed a fluorescence lifetime (in C1CCOC1) of 6.2 ns.
Still for that read-out and setting: then `CCC1(CC)c2cc(C#Cc3cccs3)ccc2-c2c1c1c(c3c2C(CC)(CC)c2cc(C#Cc4cccs4)ccc2-3)C(CC)(CC)c2cc(C#Cc3cccs3)ccc2-1`, with 1.5 ns.
`C1=CC2=CC=CC3C=c4c(cc5cccc6cccc4c65)C(=C1)C23` (stereo not given) registered a fluorescence lifetime (in ClCCl) of 7.18 ns.
As for `Cc1cc(C)cc(NC(=O)c2sc(Br)nc2C)c1`, the fluorescence lifetime worked out at 0.33 ns (in CO) and 0.18 ns (in ClC(Cl)Cl).
Under “in ClCCl”, `F[B-]1(F)Oc2ccc(Br)cc2-c2c3c(c4c([n+]21)CCc1ccccc1-4)CCc1ccccc1-3` returned a fluorescence lifetime of 0.41 ns.
In turn, `CN(C)c1ccc(C2=Nc3scc(-c4ccc([N+](=O)[O-])cc4)[n+]3[B-](F)(F)O2)cc1` showed a fluorescence lifetime (in C1CCOC1) of 1.64 ns.
Consider `O=S1(=O)c2ccc(-c3c4ccccc4cc4ccccc34)cc2-c2cc(-c3c4ccccc4cc4ccccc34)ccc21`, for which the fluorescence lifetime runs as follows: (in C1CCCCC1) 3.2 ns; (in CC#N) 4.3 ns; (in ClCCl) 3.7 ns.
Take `CC(C)c1cc(C(C)C)c(B2c3ccccc3Oc3cc(-n4c5ccccc5c5c6c(c7ccccc7n6-c6ccccc6)c6c(c7ccccc7n6-c6ccccc6)c54)ccc32)c(C(C)C)c1`: the fluorescence lifetime came out at 23.1 ns (in CC(C)c1cc(C(C)C)c(-c2ccc(-n3c4ccccc4n4c5ccccc5nc34)nc2)c(C(C)C)c1) and 24.7 ns (in O=P(c1ccccc1)(c1ccccc1)c1ccccc1Oc1ccccc1P(=O)(c1ccccc1)c1ccccc1).
For the setting “in ClCCl”, `CCN(CC)c1ccc2c(c1)oc(=O)c1c(C)nc3c(c(-c4ccccc4)nn3C)c12` had a fluorescence lifetime of 4.28 ns.
`COC(=O)/C(C#N)=c1\s/c(=c2/s/c(=C(/C#N)C(=O)OC)c3cc(-c4ccc(OC)cc4)sc23)c2sc(-c3ccc(OC)cc3)cc12` returned a fluorescence lifetime (in Cc1ccccc1) of 4.36 ns.
In turn, `O=C(c1ccc(N2c3ccccc3Sc3ccccc32)cc1)c1ccc2sc3ccccc3c2c1` returned a fluorescence lifetime (in c1ccc2c(c1)c1ccccc1n2-c1ccc(-c2ccc(-n3c4ccccc4c4ccccc43)cc2)cc1) of 37.4 ns.
Take `C/C(=N\Nc1ccc(C#N)cc1)c1cccc(/C(C)=N/Nc2ccc(C#N)cc2)c1`: the fluorescence lifetime (in CO) came to 1.27 ns.
Under “in CO”, `CC1(C)C(/C=C/C2=C(Oc3ccc(CCN=C=S)cc3F)C(=C/C=C3/N(CCCS(=O)(=O)[O-])c4ccccc4C3(C)C)/CCC2)=[N+](CCCS(=O)(=O)[O-])c2ccccc21` displayed a fluorescence lifetime of 0.843 ns.
`COc1ccc(C2=Cc3c4ccccc4c4ccccc4[n+]3[B-](F)(F)O2)cc1`: the fluorescence lifetime (in ClC(Cl)Cl) stood at 1.58 ns.
`CNc1ccc2c(c1)C(=O)c1ccccc1-2`: the fluorescence lifetime was 3.1 ns (in C1CCCCC1) and 0.63 ns (in c1ccccc1).
Turning to `[C-]#[N+]c1ccc(-c2ccc(N)cc2)cc1`, the fluorescence lifetime by setting is: (in CC#N) 2 ns; (in CCOC(C)=O) 1.7 ns.
`CN(C)c1ccc(C2=Cc3c4ccccc4cc[n+]3[B-](F)(F)O2)cc1` registered a fluorescence lifetime (in ClC(Cl)Cl) of 2.34 ns.
On to `C(=C\c1nc2c3ccccc3c3ccccc3c2o1)/c1ccccc1`, for which the fluorescence lifetime (in CC#N) was 1.83 ns.
As for `COc1ccc(/C2=C3N=C(C(c4ccccc4)=C/3c3ccccc3)/C(c3ccc(OC)cc3)=c3\[nH]/c(c(-c4ccccc4)c3-c3ccccc3)=C(/c3ccc(OC)cc3)C3=N/C(=C(/c4ccc(OC)cc4)c4[nH]c2c(-c2ccccc2)c4-c2ccccc2)C(c2ccccc2)=C3c2ccccc2)cc1`, the fluorescence lifetime (in ClCCl) is 0.921 ns.
`c1csc(-c2ccc(-c3ccc(-c4cccs4)s3)s2)c1` returned a fluorescence lifetime (in CCC(C)C) of 0.52 ns and a fluorescence lifetime (in ClCCl) of 0.44 ns.
